# Measurements from patent US11246858B2, “Immunoresponsive methods of treating tumors” (Institut Pasteur de Montevideo, priority 2017, dated 2022).
# * marks the point of attachment. Cbz = O=C(OCc1ccccc1)*; CH2F = FC*
# Assays:
# [1] = tested on: IL-1β secretion; assay: IL-1β secretion by LPS-primed, stimulated WT and TORID KO BMDCs (ELISA); type: cell-based, mouse; details: for IL-1β secretion: WT and TORID KO BMDCs primed with LPS, stimulated with ATP
# Protocol: The study shown in FIG. 8 was performed by priming WT and TORID KO mice bone marrow-derived dendritic cells (BMDCs) with 0.25 μg/mL lipopolysaccharide (LPS) for four hours. The BMDCs were then washed and treated with different doses of ATP, Nigericin, and aluminum for 45 minutes as shown in the left column of bar graphs. Alternatively, 0.5 mg/mL ATP, 2.5 μg/mL Nigericin, or 500 μg/mL aluminum were used at different time points as indicated in the right column of bar graphs. IL-1β was quantified by ELISA in the culture supernatant.
# The experiment was performed on wildtype and TORID KO mice BMDCs primed with LPS for 3 hours. The BMDCs were subsequently treated with nigericin, ATP, or aluminum for 45 minutes. […] Caspase 1 activation was quantified by FACS using Flica 1 reagent. […] Z-WEHD-FMK was used as the caspase 1 inhibitor, and IL-1β levels were quantified by ELISA in the supernatant of the cell culture stimulated with the indicated compounds.
# Inflammasome activation is also associated with an increase of cytosolic Ca^2+. […] Data in this study was generated by loading Ca^2+ sensitive probe Fura-2 in wild type and TORID KO mice BMDCs after priming the BMDCs for three hours with LPS. The cells were exposed to 0.5 mM ATP to elicit inflammasome activation. The cells were excited with a UV laser at 350 nm. Absorbance at 340 nm and 380 nm were recorded in a time lapse manner. As shown in the top illustrations, the TORID KO BMDCs show a higher level of cytosolic Ca^2+. Moreover, IL-1β levels were higher with the TORID KO BMDCs. BAPTA-AM was used to chelate cytosolic Ca^2+.
# Potassium (K^+) efflux is also linked to inflammasome activation. In the study shown in FIG. 11, IL-1β synthesis resulting from K^+ was tested. This study was performed on wild type and TORID KO mouse BMDCs treated with LPS and ATP as in the previously described studies herein. Culture medium was replaced by saline buffer containing normal low levels of K^+ (5 mM, K+) or high levels of K^+ (120 mM; K+++). IL-1β was quantified by ELISA in the culture supernatant. As shown in the top graph of FIG. 11, IL-1β levels were higher in the TORID KO mice. […] The results therefore support pharmacological use of TIs to promote inflammasome activation by triggering Ca^2+-activated K^+ channels.
# [2] = tested on: EG7 and MC38 tumors; assay: Survival of mice with EG7 and MC38 tumors treated with anti-PD-1 alone or anti-PD-1+Bayk8644; type: in vivo; details: anti-PD-1 resistant mice; two tumor types (EG7, MC38); anti-PD-1+BAY K8644 vs anti-PD-1 alone
# [3] = tested on: EG7.OVA cancer cells; assay: EG7.OVA tumor-bearing wild type mice treated with BAY K8644; type: in vivo; details: EG7.OVA s.c., i.p. daily day 3 to day 15, vs control vehicle
# Protocol: Data from in vivo studies depicted in FIG. 16 confirm the effect of pharmacologic inhibition of TORID on tumor growth. The study was performed on wild type mice injected subcutaneously with EG7.OVA cancer cells. Three days after inoculating the wild type mice with EG7.OVA tumor cells, Bay K8644 or a control vehicle, such as ethanol, were injected intraperitoneally daily up to the fifteenth day after tumor cell inoculation.
# [4] = tested on: TORID; assay: TORID activity by ANG-2 probe fluorescence (flow cytometry) in transfected CHO cells; type: cell-based
# Protocol: As shown in FIG. 14 Chinese hamster ovarian (CHO) cells were transfected with TORID and Tmem176a and incubated for 24 hours. The cells were subsequently loaded with ANG-2 probe for 30 min RT, washed, and then incubated with (+)-BAY […] or (i)-BAY […] for 30 min. The cells were then analyzed by flow cytometry to evaluate TORID activity. Activity was measured by comparing fluorescence of the ANG-2 probe in TORID+ cells incubated with BAY […] (blue) to the control (red). TORID activity measure as the ANG-2 mean fluorescent intensity (MFI) in normal medium 0(-), 5(+), or 10(++) uM. […] FIG. 15 illustrates analysis of the ANG-2 mean fluorescent intensity (MFI) in normal medium of TORID exposed to BAY […] concentrations of 0 uM (-), 5 uM (+) or 10 uM (++). […] In all cases fluorescence intensity from ANG-2-loaded cells cultured in […] buffer was subtracted.
# [5] = tested on: EG7.OVA cells; assay: EG7.OVA tumor in caspase 1/11 active and caspase 1/11 KO mice treated with BAY K8644; type: in vivo; details: 4 mg/kg i.p. daily day 3 to day 15
# Text: FIG. 17 further confirms the results from FIG. 16 and the proposed mechanism depicted in FIG. 6. Data shown in FIG. 17 was gathered from caspase 1/11 active mice (1/11^+/+) and caspase 1/11 KO mice (1/11^−/−) injected with EG7.OVA cells.
compound,measurement,setting,value
"CCN(CCO)CCCC(C)Nc1ccnc2cc(Cl)ccc12 (stereo not shown) [HCQ, hydroxychloroquine]",IL-1β secretion,[1],mimicked iberiotoxin in controlling IL-1β secretion
"iberiotoxin: BKCa KCa1.1 specific inhibitor (QFTDVDCSVSKECWSVCKDLFGVDRGKCMGKKCRCYQ; UniProt P24663 1-37, looked up)",IL-1β secretion,[1],blocked IL-1beta secretion
Cbz-WEHD-CH2F,IL-1β levels in culture supernatant,"[1]; BMDCs primed with LPS 3 hours, then nigericin, ATP or aluminum, caspase 1 inhibition",lower levels of IL-1β
"COC(=O)C1=C(C)NC(C)=C([N+](=O)[O-])C1c1ccccc1C(F)(F)F (stereo not shown) [BAY K8644, Methyl 2,6-dimethyl-5-nitro-4-[2-(trifluoromethyl)phenyl]-1,4-dihydropyridine-3-carboxylate]",rate of survival,[2],higher rate of survival
same,disease-free survival rates,[3],increased
same,TORID activity versus BAY K8644 concentration,"[4]; 0, 5 or 10 uM in normal medium, Na-free buffer signal subtracted",dose proportional response
same,TORID activity (ANG-2 mean fluorescent intensity),"[4]; CHO cells transfected with TORID and Tmem176a, 30 min incubation, vs control",inhibits TORID activity
same,overall rates of survival vs negative control group not injected,[5],higher
same,survival rate in caspase 1/11 KO vs caspase 1/11 active mice,[5],lowered the survival rate
CC(=O)OCOC(=O)CN(CC(=O)OCOC(C)=O)c1ccccc1OCCOc1ccccc1N(CC(=O)OCOC(C)=O)CC(=O)OCOC(C)=O [BAPTA-AM],IL-1β secretion,[1],completely blocked IL-1β secretion
